Where a SMILES comes first, the peptide text is derived from it. [ ]: non-standard residue; d: D form. pS = N[C@@H](COP(=O)(O)O)C(=O)O
Columns and labels:
14-3-3σ-ΔC [1] = target: T1, 14-3-3σ-ΔC (Homo sapiens, UniProt P31947); assay: Label-free microscale thermophoresis (MST) binding, 14-3-3σ
T1 construct: His6; made in house; host or cells: Escherichia coli BL21 Rosetta (DE3)
T1 sequence (P31947 1-231 limits assumed): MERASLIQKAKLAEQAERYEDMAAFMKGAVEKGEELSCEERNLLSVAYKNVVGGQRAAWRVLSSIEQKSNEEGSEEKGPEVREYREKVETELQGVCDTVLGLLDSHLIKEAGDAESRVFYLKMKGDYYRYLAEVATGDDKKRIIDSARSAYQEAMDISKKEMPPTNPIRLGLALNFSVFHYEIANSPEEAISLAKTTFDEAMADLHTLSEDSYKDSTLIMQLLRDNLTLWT
Description: The binding of phosphorylated sirtuin peptides (Fig. 1 ▸) was analyzed using the change in the intrinsic fluorescence signal of the 14-3-3 proteins measured with label-free microscale thermophoresis using a Nanotemper Monolith NT.LabelFree or NT.115. A typical binding experiment using 0.6 µM 14-3-3 protein was performed in a modified MST buffer consisting of 25 mM MES pH 6.5, 5 mM MgCl2, 5 mM CaCl2. The measurements were performed at 25°C using a LED power of 10–40%. All measurements were performed at least in duplicate, and the results shown are representative measurements individually fitted using GraFit 7 (Erathicus Software, Horley, United Kingdom).
Figure 1 Classification and analysis of sirtuin PSSM results for potential 14-3-3 phosphoserine binding sites. Peptides with a gray background were not analyzed experimentally. Score is the overall PSSM score for the phosphorylation site; rank is the order within the 17 proposed sirtuin binding sites. Conserved residues in the 14-3-3 motifs are marked in green. Residues with restricted (proline) or very flexible (glycine) protein backbone or with a very large side chain (tryptophan) are marked in red. Amino acids with the same or similar hydrophobicity/size are shown in magenta. Kd values from duplicate measurements are colored green for Kd < 100 µM. Fields marked in red indicate no binding or no successful experiment. TEXT PRINTED IN THE PICTURE: Sirt1 S26: Affinity estimates by MicroScale Thermophoresis [μM], 14-3-3 isoform sigma: none | Sirt1 S670: Affinity estimates by MicroScale Thermophoresis [μM], 14-3-3 isoform gamma: aggr.; Affinity estimates by MicroScale Thermophoresis [μM], 14-3-3 isoform epsilon: > 183; Affinity estimates by MicroScale Thermophoresis [μM], 14-3-3 isoform theta: 93; Affinity estimates by MicroScale Thermophoresis [μM], 14-3-3 isoform sigma: 5 | Sirt3 S103: Affinity estimates by MicroScale Thermophoresis [μM], 14-3-3 isoform gamma: aggr.; Affinity estimates by MicroScale Thermophoresis [μM], 14-3-3 isoform epsilon: > 267; Affinity estimates by MicroScale Thermophoresis [μM], 14-3-3 isoform theta: 52; Affinity estimates by MicroScale Thermophoresis [μM], 14-3-3 isoform sigma: 10 | Sirt3 S103wt: Affinity estimates by MicroScale Thermophoresis [μM], 14-3-3 isoform gamma: aggr.; Affinity estimates by MicroScale Thermophoresis [μM], 14-3-3 isoform theta: none; Affinity estimates by MicroScale Thermophoresis [μM], 14-3-3 isoform sigma: none | Sirt3 S105: Affinity estimates by MicroScale Thermophoresis [μM], 14-3-3 isoform gamma: aggr.; Affinity estimates by MicroScale Thermophoresis [μM], 14-3-3 isoform epsilon: > 215; Affinity estimates by MicroScale Thermophoresis [μM], 14-3-3 isoform theta: 60; Affinity estimates by MicroScale Thermophoresis [μM], 14-3-3 isoform sigma: none | Sirt5 S168: Affinity estimates by MicroScale Thermophoresis [μM], 14-3-3 isoform epsilon: aggr.; Affinity estimates by MicroScale Thermophoresis [μM], 14-3-3 isoform theta: aggr.; Affinity estimates by MicroScale Thermophoresis [μM], 14-3-3 isoform sigma: > 329 | Sirt6 T337: Affinity estimates by MicroScale Thermophoresis [μM], 14-3-3 isoform epsilon: > 420; Affinity estimates by MicroScale Thermophoresis [μM], 14-3-3 isoform sigma: 12 | Sirt6 S338: Affinity estimates by MicroScale Thermophoresis [μM], 14-3-3 isoform epsilon: 19; Affinity estimates by MicroScale Thermophoresis [μM], 14-3-3 isoform sigma: 24 | Sirt7 S136: Affinity estimates by MicroScale Thermophoresis [μM], 14-3-3 isoform epsilon: none; Affinity estimates by MicroScale Thermophoresis [μM], 14-3-3 isoform theta: 30; Affinity estimates by MicroScale Thermophoresis [μM], 14-3-3 isoform sigma: 49
For nine of the sites, including sites from all sirtuin isoforms except Sirt4, endecameric phosphopeptides were chemically synthesized for in vitro analysis. […]

14-3-3σ-ΔC [2] = target: T1, 14-3-3σ-ΔC; assay: Isothermal titration calorimetry (ITC); format: binding; details: Fig. 3c; nanoITC, 150 µM 14-3-3σ-ΔC in cell, fourfold-concentrated peptide, 2 µl injections, 25°C, one-site fit; duplicate, error between fits; read-out: apparent Kd, ITC
Description: Peptide ligands were freshly prepared in the exact same buffer as was used for the gel-filtration run. Samples were degassed and temperature-equilibrated using a degassing station (TA Instruments). A volume of 250 µl of 14-3-3σ-ΔC protein sample at a concentration of 150 µM was transferred into the sample cell of a nanoITC (TA Instruments) and 50 µl of a fourfold-concentrated phosphorylated peptide was loaded into the injection needle. Multiple injection measurements were carried out at 25°C with a 300 rev min^−1 stirring rate and 300 s spacing between each 2 µl injection. The heat quantity post-injection was determined by integration of the measured peaks. The Sirt1^pS670 peptide behaved best and was measured in duplicate. Subtraction of heat of dilution measurements, peak integration and one-site binding fits were performed with NanoAnalyze (TA Instruments). The reported errors are the errors between fits of the measured duplicates.
Figure 3 Affinity measurements of Sirt1^pS670 and different Sirt3 peptides for 14-3-3σ-ΔC protein using MST and ITC experiments. […] (b) MST experiments of titrations of 14-3-3σ-ΔC with Sirt3^pS105 (squares) or Sirt3^pS103 (two independent runs, filled triangles and triangles) endecamer peptides and, for comparison, with nonphosphoylated Sirt3^S103 peptide (circles).

- Kd (14-3-3σ-ΔC [1]; Fig. 1, label-free MST, 0.6 µM 14-3-3 protein, 25 mM MES pH 6.5, 5 mM MgCl2, 5 mM CaCl2, 25°C, Kd from duplicate measurements, read-out: Affinity estimates by MicroScale Thermophoresis, 14-3-3 isoform sigma (Kd)): 5 µM
- Kd (14-3-3σ-ΔC [1]; Fig. 3a, average of two independent MST experiments, 25°C, MES pH 6.5, read-out: average Kd, MST titration of 14-3-3σ-ΔC): 1.7 ± 1.3 µM
- Kd (14-3-3σ-ΔC [2]): 5 ± 4.2 µM
Compound: CC(C)C[C@H](NC(=O)[C@@H](N)C(C)C)C(=O)N[C@@H](CO)C(=O)N[C@@H](CO)C(=O)N[C@@H](CO)C(=O)N[C@@H](COP(=O)(O)O)C(=O)N[C@@H](CS)C(=O)NCC(=O)N[C@@H](CO)C(=O)N[C@@H](CC(N)=O)C(=O)N[C@@H](CO)C(=O)O [Sirt1^pS670] (H-VLSSS[pS]CGSNS-OH)
